Experiments:
[1] = biological target: Alpha-galactosidase (Coffea arabica) (UniProt Q42656); experiment: Inhibition of coffee bean alpha-galactosidase at 1000 uM
[2] = tested on: Aspergillus niger; experiment: Inhibition of Aspergillus niger beta-glucosidase at 1000 uM
[3] = tested on: Prunus dulcis; experiment: Inhibition of almond beta-glucosidase at 1000 uM
[4] = biological target: T1, Alpha-glucosidase (Aspergillus niger) (UniProt P56526); experiment: Inhibition of Aspergillus niger alpha-glucosidase at 1000 uM
T1 sequence (whole entry): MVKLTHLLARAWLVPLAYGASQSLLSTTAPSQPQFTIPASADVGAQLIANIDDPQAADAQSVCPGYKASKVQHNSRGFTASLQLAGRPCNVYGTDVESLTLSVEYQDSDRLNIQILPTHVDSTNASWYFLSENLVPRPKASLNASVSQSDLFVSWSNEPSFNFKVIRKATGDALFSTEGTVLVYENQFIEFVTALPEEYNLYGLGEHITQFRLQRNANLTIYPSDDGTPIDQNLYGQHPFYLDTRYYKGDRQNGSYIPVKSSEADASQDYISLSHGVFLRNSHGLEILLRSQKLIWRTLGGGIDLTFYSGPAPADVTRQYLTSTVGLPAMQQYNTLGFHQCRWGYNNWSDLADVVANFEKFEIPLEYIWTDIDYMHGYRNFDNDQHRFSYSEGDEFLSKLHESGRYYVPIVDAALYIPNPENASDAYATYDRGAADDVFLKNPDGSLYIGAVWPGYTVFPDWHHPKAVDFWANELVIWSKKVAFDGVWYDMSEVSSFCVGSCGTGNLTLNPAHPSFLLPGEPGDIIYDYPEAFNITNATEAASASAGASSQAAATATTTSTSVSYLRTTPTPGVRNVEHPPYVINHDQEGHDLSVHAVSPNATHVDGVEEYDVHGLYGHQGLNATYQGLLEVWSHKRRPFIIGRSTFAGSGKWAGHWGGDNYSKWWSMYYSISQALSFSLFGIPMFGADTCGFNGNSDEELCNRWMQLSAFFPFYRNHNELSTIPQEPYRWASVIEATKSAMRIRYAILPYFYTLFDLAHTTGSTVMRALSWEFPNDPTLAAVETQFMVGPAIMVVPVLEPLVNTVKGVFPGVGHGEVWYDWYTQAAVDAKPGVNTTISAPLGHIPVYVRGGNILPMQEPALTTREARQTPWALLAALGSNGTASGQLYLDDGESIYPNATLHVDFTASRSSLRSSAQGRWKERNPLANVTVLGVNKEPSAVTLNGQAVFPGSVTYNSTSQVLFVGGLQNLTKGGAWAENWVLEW

[5] = biological target: Oligo-1,6-glucosidase IMA1 (Saccharomyces cerevisiae S288c) (UniProt P53051); experiment: Inhibition of yeast alpha-glucosidase at 1000 uM
Oligo-1,6-glucosidase IMA1 (Saccharomyces cerevisiae S288c), sequence (P53051 whole entry): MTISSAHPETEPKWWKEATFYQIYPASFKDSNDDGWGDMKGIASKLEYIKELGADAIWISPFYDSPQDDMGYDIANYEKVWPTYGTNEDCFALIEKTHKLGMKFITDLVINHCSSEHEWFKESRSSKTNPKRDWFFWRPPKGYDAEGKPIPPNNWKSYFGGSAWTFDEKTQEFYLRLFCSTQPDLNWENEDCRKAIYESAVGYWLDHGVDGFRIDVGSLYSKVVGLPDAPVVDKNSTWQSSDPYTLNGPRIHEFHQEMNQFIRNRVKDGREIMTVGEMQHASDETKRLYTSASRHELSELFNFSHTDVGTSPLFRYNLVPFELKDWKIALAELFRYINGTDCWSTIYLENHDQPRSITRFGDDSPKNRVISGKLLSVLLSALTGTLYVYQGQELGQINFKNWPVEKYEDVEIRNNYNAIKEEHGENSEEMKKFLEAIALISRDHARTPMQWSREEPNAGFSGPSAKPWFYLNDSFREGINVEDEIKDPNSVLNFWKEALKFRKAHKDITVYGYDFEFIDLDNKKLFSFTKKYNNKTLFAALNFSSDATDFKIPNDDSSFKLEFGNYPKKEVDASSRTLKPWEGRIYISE

[6] = species: Rattus norvegicus; experiment: Inhibition of rat intestinal maltase alpha-glucosidase at 1000 uM
[7] = tested on: Oryza sativa; experiment: Inhibition of rice alpha-glucosidase at 1000 uM
[8] = tested on: Rhizopus; experiment: Inhibition of Rhizopus sp. amyloglucosidase at 1000 uM
[9] = tested on: Aspergillus niger; experiment: Inhibition of Aspergillus niger amyloglucosidase at 1000 uM
[10] = biological target: T2, Uncharacterized protein (Sus scrofa) (UniProt I3LIR5); experiment: Inhibition of pig kidney alpha, alpha trehalase at 1000 uM
T2 sequence (whole entry): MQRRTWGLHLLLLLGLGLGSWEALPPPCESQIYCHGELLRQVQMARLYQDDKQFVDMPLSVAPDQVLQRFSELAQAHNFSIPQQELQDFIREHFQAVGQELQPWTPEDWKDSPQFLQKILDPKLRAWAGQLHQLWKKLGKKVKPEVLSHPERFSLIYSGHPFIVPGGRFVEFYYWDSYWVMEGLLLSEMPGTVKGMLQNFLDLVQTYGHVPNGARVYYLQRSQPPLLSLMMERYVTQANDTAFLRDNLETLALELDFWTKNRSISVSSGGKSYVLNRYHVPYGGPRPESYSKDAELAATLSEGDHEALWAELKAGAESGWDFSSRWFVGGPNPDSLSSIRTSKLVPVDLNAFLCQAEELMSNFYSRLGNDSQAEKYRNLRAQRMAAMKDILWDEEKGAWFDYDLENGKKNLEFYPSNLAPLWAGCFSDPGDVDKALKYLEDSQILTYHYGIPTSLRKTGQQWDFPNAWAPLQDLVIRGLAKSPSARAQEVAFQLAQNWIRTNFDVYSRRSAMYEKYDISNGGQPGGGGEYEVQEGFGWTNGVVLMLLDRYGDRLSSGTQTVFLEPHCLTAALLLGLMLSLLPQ

[11] = biological target: T3, Beta-glucuronidase (Bos taurus) (UniProt A3KMY8); experiment: Inhibition of bovine liver beta-glucuronidase at 1000 uM
T3 sequence (whole entry): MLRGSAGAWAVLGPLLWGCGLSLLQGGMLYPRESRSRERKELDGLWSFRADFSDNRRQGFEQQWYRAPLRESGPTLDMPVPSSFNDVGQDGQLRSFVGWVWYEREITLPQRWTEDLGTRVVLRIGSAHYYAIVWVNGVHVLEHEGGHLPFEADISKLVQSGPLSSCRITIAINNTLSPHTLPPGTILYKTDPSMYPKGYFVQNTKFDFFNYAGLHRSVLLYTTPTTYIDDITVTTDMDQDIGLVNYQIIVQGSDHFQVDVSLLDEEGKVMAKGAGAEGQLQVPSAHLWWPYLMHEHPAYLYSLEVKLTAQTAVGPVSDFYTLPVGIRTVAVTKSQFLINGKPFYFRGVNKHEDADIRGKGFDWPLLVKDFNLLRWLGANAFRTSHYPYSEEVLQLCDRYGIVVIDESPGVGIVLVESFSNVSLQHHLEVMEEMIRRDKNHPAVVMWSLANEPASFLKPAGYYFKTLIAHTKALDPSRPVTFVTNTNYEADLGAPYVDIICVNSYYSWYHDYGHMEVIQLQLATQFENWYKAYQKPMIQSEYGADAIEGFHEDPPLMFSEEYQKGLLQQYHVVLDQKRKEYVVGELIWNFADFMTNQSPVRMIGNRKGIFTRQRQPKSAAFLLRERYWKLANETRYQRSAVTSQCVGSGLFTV

[12] = tested on: Helix pomatia; experiment: Inhibition of snail beta-mannosidase at 1000 uM
[13] = tested on: Canavalia ensiformis; experiment: Inhibition of jack beans alpha-mannosidase at 1000 uM

Alpha-galactosidase (Coffea arabica), sequence (Q42656 16-378 limits assumed): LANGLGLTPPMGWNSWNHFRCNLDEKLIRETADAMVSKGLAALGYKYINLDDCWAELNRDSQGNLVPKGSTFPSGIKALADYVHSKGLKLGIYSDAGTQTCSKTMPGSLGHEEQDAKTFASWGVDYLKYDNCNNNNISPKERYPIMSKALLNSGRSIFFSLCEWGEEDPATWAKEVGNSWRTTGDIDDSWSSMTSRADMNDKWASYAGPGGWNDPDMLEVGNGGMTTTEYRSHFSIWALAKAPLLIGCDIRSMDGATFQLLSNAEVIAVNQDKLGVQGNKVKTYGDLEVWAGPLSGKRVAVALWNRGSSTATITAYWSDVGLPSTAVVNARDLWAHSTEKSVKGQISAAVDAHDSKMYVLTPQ

Q: Which results are given for `CC[C@H]1N[C@@H](CO)[C@@H](O)[C@H](O)[C@H]1O`?
A: inhibition [1]: 8.7%; inhibition [2]: 0%; inhibition [3]: 16.9%; inhibition [4]: 0%; inhibition [5]: 9%; inhibition [6]: 3.3%; inhibition [7]: 0%; inhibition [8]: 0%; inhibition [9]: 1.9%; inhibition [10]: 0%; inhibition [11]: 0%; inhibition [12]: 0%; inhibition [13]: 5.1%

Q: Which inhibition [1] does the source give for `CC[C@H]1NC[C@@H](O)[C@@H](O)[C@H](O)[C@H]1O` here?
A: 1.2%

Q: And the inhibition [2]?
A: 0%

Q: What about the inhibition [3] of the same compound?
A: 5.1%

Q: And the inhibition [4]?
A: 0%

Q: And the inhibition [5]?
A: 0%

Q: What about the inhibition [6] of the same compound?
A: 0%

Q: And the inhibition [7]?
A: 1%

Q: And the inhibition [8]?
A: 0%

Q: What about the inhibition [9] of the same compound?
A: 0.8%

Q: And the inhibition [10]?
A: 3.9%

Q: What about the inhibition [11] of the same compound?
A: 0.1%

Q: And the inhibition [12]?
A: 0%

Q: And the inhibition [13]?
A: 0%

Q: How did the inhibition [1] turn out when `CC[C@@H]1N[C@H](CC)[C@H](O)[C@@H](O)[C@@H]1O` was run?
A: 3.7%

Q: And the inhibition [2]?
A: 0%

Q: What about the inhibition [3] of the same compound?
A: 21.4%

Q: What about the inhibition [4] of the same compound?
A: 0%

Q: And the inhibition [5]?
A: 2%

Q: What about the inhibition [6] of the same compound?
A: 0%

Q: What about the inhibition [7] of the same compound?
A: 1.7%

Q: What about the inhibition [8] of the same compound?
A: 3.4%

Q: And the inhibition [9]?
A: 4.1%

Q: And the inhibition [10]?
A: 4.9%

Q: And the inhibition [11]?
A: 0.5%

Q: And the inhibition [12]?
A: 0.3%

Q: And the inhibition [13]?
A: 0.4%

Q: With `CC[C@@H]1NC[C@@H](O)[C@@H](O)[C@H](O)[C@H]1O` as the compound, how does the inhibition [1] read?
A: 7.5%

Q: And the inhibition [2]?
A: 0%

Q: What about the inhibition [3] of the same compound?
A: 48.7%

Q: And the inhibition [4]?
A: 0.2%

Q: And the inhibition [5]?
A: 23.5%

Q: What about the inhibition [6] of the same compound?
A: 13.7%

Q: What about the inhibition [7] of the same compound?
A: 0%

Q: What about the inhibition [8] of the same compound?
A: 0%

Q: And the inhibition [9]?
A: 0%

Q: And the inhibition [10]?
A: 0%

Q: What about the inhibition [11] of the same compound?
A: 0.1%

Q: And the inhibition [12]?
A: 0%

Q: What about the inhibition [13] of the same compound?
A: 11%

Q: What does the source list for `CCC[C@@H]1N[C@@H](CO)[C@@H](O)[C@H](O)[C@H]1O`?
A: inhibition [1]: 10.4%; inhibition [2]: 0%; inhibition [3]: 42.6%; inhibition [4]: 1.4%; inhibition [5]: 40%; inhibition [6]: 0%; inhibition [7]: 0%; inhibition [8]: 0%; inhibition [9]: 0%; inhibition [10]: 0%; inhibition [11]: 0%; inhibition [12]: 1.3%; inhibition [13]: 5.1%

Q: What does the source list for `CC[C@@H]1N[C@@H](CO)[C@@H](O)[C@H](O)[C@H]1O`?
A: inhibition [1]: 0.6%; inhibition [2]: 0%; inhibition [3]: 33.5%; inhibition [4]: 6.1%; inhibition [5]: 0%; inhibition [6]: 0%; inhibition [7]: 0%; inhibition [8]: 0%; inhibition [9]: 0%; inhibition [10]: 6%; inhibition [11]: 0.8%; inhibition [12]: 0%; inhibition [13]: 0%
